“Also recorded” adds a separate entry of the source. Square brackets hold non-standard residues; d marks the D form. Peptide text beside a SMILES is read from it. NMeTrp(1-(4-Br-benzyl)) = CN[C@@H](Cc1cn(Cc2ccc(Br)cc2)c2ccccc12)C(=O)O; Butanoyl(2R-oxy,4-CN) = N#CCC[C@@H](O)C(=O)O; NMeL = CN[C@@H](CC(C)C)C(=O)O; NMeA = CN[C@@H](C)C(=O)O

The subject of assay [1] is SIGMAR2/TMEM97. The conditions noted are these: annotated activity, Extended Data Fig. 10b; cited from earlier work.
The test system of assay [2] is SARS-CoV-2. Format: cell-based.
The subject of assay [3] is SARS-CoV-2. It is filed as cell-based. The source holds these as a separate data set.
In assay [4] the test system is SARS-CoV-2. It is filed as cell-based. Conditions: Vero E6 cells.
The test system of assay [5] is viral replication. The conditions noted are these: cited from earlier work.
Assay [6] relates to SIGMAR1. Conditions: Extended Data Fig. 10b, cited from earlier work.

Regarding `Cc1cc(OCCN2CCOCC2)nn1-c1ccc2ccccc2c1` [E-52862], the “binding at SIGMAR2/TMEM97, reported” value in assay [1] is “greater than 1 μM”.
For `COc1cccc2c1CCCC2CCCN1CCN(C2CCCCC2)CC1` (stereo not shown) [PB28], in assay [2], the “detection of the viral NP protein (in words)” value (shortened to “detection”) is recorded as “decreased the detection of the viral NP protein”. For the same compound, the “times more potent than hydroxychloroquine” value in assay [3] is reported as ~ 20 times. For the same compound, the “antiviral activity / viral infectivity (in words)” value in assay [4] is “effectively reducing viral infectivity”.
As for `CCCN1CCC=C(c2cc(-c3ccc(C)cc3)no2)C1.O=C(O)C(=O)O` [PD-144418], the “antiviral activity / viral infectivity (in words)” value in assay [4] was “effectively reducing viral infectivity”.
Consider `CC(C)C[C@@H]1NC(=O)[C@H](Cc2cn(Cc3ccc(Br)cc3)c3ccccc23)N(C)C(=O)[C@H](CC(C)C)NC(=O)[C@H](CC(C)C)N(C)C(=O)[C@H](CC(C)C)NC(=O)[C@@H](CCC#N)OC(=O)[C@H](C)N(C)C1=O` [PS3061] (cyclo(L[NMeA][Butanoyl(2R-oxy,4-CN)]L[NMeL]L[NMeTrp(1-(4-Br-benzyl))])), for which the “antiviral activity / viral infectivity (in words)” value in assay [4] is listed as “effectively reducing viral infectivity; also recorded: blocked SARS-CoV-2 replication”.
On to `CCCCc1oc2ccccc2c1C(=O)c1cc(I)c(OCCN(CC)CC)c(I)c1` [amiodarone], for which, in assay [5], the “activity in viral replication assays reported by others (in words)” value (“activity … by others (in words)” for short) is “active in viral replication assays”.
For `COc1ccc(CCN2CCC(Nc3nc4ccccc4n3Cc3ccc(F)cc3)CC2)cc1` [astemizole], the “activity … by others (in words)” value in assay [5] is “active in viral replication assays”.
Regarding `Clc1ccc(C(OCCN2CCCCC2)c2ccccc2)cc1` (stereo not shown) [cloperastine], in assay [4], the “antiviral activity / viral infectivity (in words)” value was “antiviral activity”.
Take `COc1ccc2c(c1)[C@]13CCCC[C@@H]1[C@H](C2)N(C)CC3` [dextromethorphan]: in assay [3], the “viral titers (TCID50), effect in words” value is listed as “increases viral titers”. The “antiviral activity / viral infectivity (in words)” value in assay [4] is listed as “pro-viral activity”.
In the case of `O=C(CCCN1CCC(O)(c2ccc(Cl)cc2)CC1)c1ccc(F)cc1` [haloperidol, Haloperidol], in assay [4], the “antiviral activity / viral infectivity (in words)” value is on record as “effectively reducing viral infectivity; also recorded: antiviral activity”.
In the case of `CCN(CCO)CCCC(C)Nc1ccnc2cc(Cl)ccc12` (stereo not shown) [hydroxychloroquine], the “detection” value in assay [2] is “decreased the detection of the viral NP protein”. Also, the “antiviral activity / viral infectivity (in words)” value in assay [4] was “effectively reducing viral infectivity”.
Consider `Cc1cc2c(s1)Nc1ccccc1N=C2N1CCN(C)CC1` [olanzapine], for which the “Sigma receptor activity (in words)” value in assay [6] was “little Sigma receptor activity”. Further, the “activity at SIGMAR1, reported” value in assay [6] (annotated activity) was “greater than 5 μM”. Also, the “antiviral activity / viral infectivity (in words)” value in assay [4] is given as “not antiviral”.
With `CC(=O)[C@H]1CC[C@H]2[C@@H]3CCC4=CC(=O)CC[C@]4(C)[C@H]3CC[C@]12C` [progesterone], in assay [4], the “antiviral activity / viral infectivity (in words)” value is “antiviral”.
For `Fc1ccc(-n2cc(CCCCN3CCC4(CC3)OCc3ccccc34)c3ccccc32)cc1` [siramesine], the “antiviral activity / viral infectivity (in words)” value in assay [4] was “antiviral”.
As for `COc1ccc(CCN(C)CCCC(C#N)(c2ccc(OC)c(OC)c2)C(C)C)cc1OC` (stereo not shown) [verapamil], the “activity … by others (in words)” value in assay [5] is on record as “active in viral replication assays”.
As to `COc1cc2c(c(OC)n1)[C@]1(O)[C@H](O)[C@H](CN(C)C)[C@@H](c3ccccc3)[C@]1(c1ccc(C#N)cc1)O2` [zotatifin], the “detection” value in assay [2] is “decreased the detection of the viral NP protein”. For the same compound, the “antiviral activity / viral infectivity (in words)” value in assay [4] is recorded as “reduce viral infectivity in a concentration-dependent matter; also recorded: effectively reducing viral infectivity; also recorded: strong antiviral effect”.

The record behind these values is paper PMC7431030 (Nature, 2020).
